Tests used:
[1] = target: T1, human GABAA receptor α1β2 and γ2 subunits (Homo sapiens, UniProt P14867+P18507+P47870); test: Automated patch clamp studies on the GABAA receptor cells; type: cell-based; details: 15 μM GABA, Table B; for % GABAA inhibition: 10 μM compound, CHO-K1 cells; for inhibition at 10 µM: CHO-K1, 10 μM compound
T1 construct: expressed in transfected cells
Procedure: CHO-K1 cells stably expressing human GABAA receptor α1β2 and γ2 subunits were used. The cells were harvested using trypsin and maintained in serum-free medium at room temperature. The cells were washed and re-suspended in extracellular solution before testing.
Experiments on human GABAA (α1β2γ2) channels were conducted using an automated patch clamp assay (lonFlux™ HT). The external solution for recording GABAA currents was composed of sodium chloride 137 mM, potassium chloride 4 mM, calcium chloride 1.8 mM, magnesium chloride 1 mM, HEPES 10 mM, and glucose 10 mM. Both external and internal solutions were titrated with NaOH or KOH to obtain a pH of 7.35 and 7.3, respectively. The internal pipette solution contained potassium fluoride 70 mM, potassium chloride 60 mM, sodium chloride 70 mM, HEPES 5 mM, EGTA 5 mM, and Magnesium ATP 4 mM. The final concentration of vehicle used to dilute compounds was 0.33% DMSO in each well. Bicuculline (0.032 to 100 μM) was used as positive control inhibitor. GABA (15 μM) was used as agonist. All recordings were obtained from a holding potential of −60 mV.
The compound addition sequence was the following: one addition of the EC80 concentration of GABA was added to establish baseline response. Each concentration of compound was applied for 30 seconds followed by the addition of 15 μM GABA in the presence of the compound for 2 seconds. The process was repeated with the next ascending concentration of compound. Peak inward currents in response to the GABA additions in the presence of a single concentration of compound were measured. All compound data have been normalized to the baseline peak current induced by addition of 15 μM GABA for 2 seconds.

dopamine D1 receptor = target: T2, dopamine D1 receptor (Homo sapiens, UniProt P21728); test: cAMP HTRF potentiation assay (in the presence of dopamine); type: cell-based; details: potentiation of cAMP with [EC20] of dopamine (1.1 nM); LMtk (Ltk−) mouse fibroblast cells expressing the dopamine D1 receptor
T2 construct: host or cells: LMtk (Ltk-) mouse fibroblast cells, kept under Geneticin
T2 sequence (P21728 whole entry): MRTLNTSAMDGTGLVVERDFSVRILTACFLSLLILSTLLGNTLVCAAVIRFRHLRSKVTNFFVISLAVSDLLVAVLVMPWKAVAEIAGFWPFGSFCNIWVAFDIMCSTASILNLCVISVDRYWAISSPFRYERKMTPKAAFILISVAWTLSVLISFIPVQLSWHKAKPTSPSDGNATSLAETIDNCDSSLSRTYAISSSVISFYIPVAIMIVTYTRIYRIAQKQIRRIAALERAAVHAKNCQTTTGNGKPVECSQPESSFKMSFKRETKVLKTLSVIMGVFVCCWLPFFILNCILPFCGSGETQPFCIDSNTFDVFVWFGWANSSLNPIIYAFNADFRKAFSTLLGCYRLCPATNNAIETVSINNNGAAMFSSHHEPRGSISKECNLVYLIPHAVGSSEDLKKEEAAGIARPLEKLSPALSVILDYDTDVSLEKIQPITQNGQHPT
Procedure: The potentiation assay measures the ability of compounds to increase the levels of cAMP produced by a low-threshold concentration of dopamine. The concentration of dopamine used ([EC20]) is designed to produce 20% stimulation compared to the maximal response (100%) seen with increasing the concentration of dopamine. To measure this potentiation we incubate increasing concentrations of the compound with the [EC20] of dopamine and measure the potentiation as increases in cAMP production. The pEC50 of a compound is the −log 10 of the concentration of the compound which produces 50% of the potentiation of the cAMP levels and the Erel is the relative efficacy, defined as the maximal % potentiation produced by the compound compared to the maximal response produced by increasing concentrations of dopamine (Erel of 1=dopamine maximum response).
Cells were cultured at 37° C. in a humidified atmosphere of 5% CO2. Cells were grown in DMEM-F12+GlutaMAX™-1 medium (GIBCO®, Invitrogen, Merelbeke, Belgium) containing 10% fetal bovine serum (BioWhittaker®, Lonza, Verviers, Belgium), 400 μg/mL Geneticin (GIBCO®), 100 IU/mL Penicillin and 100 IU/mL Streptomycin (Pen-Strep solution, BioWhittaker®).
The measurement of changes in intracellular cyclic adenosinemonophopshpate (cAMP) was determined using the HTRF cAMP dynamic assay kit from CisBio (Codolet, France). Using homogenous time-resolved fluoresence technology, the assay is based on competition between native cAMP produced by cells and cAMP labelled with the dye d2. The tracer binding is determined by an anti-cAMP antibody labeled with cryptate. The effects of the compound alone (agonism) was determined by performing the assay in the absence of dopamine, whilst the effect of the compound as a positive allosteric modulator (PAM) was determined in the presence of an EC20 concentration of dopamine. Cells (20,000 per well) are incubated in 384 plates for 1 h at rt in a final volume of 20 μLHBSS (Lonza, with calcium, magnesium and HEPES buffer 20 mM, pH 7.4) containing: isobutyl methylxanthine (Sigma, 0.1 mM final), varying concentrations of test compound (typically 10^−9.5 M to 10^−4.5 M) in the presence and absence of dopamine (1.1 nM final). The reaction is then terminated and the cells lysed by adding the d2 detection reagent in lysis buffer (10 μL) and the cryptate reagent in lysis buffer (10 μL) according to manufacturer's instructions. This is then incubated for a further 60 min at rt and changes in HTRF fluorescent emission ratio determined according to manufacturer's instructions using an Envision plate reader (Perkin Elmer, Zaventem, Belgium) with laser excitation. All incubations were performed in duplicate and results were compared to a concentration-effect curve to dopamine. (10^−11 M to 10^−6 M).
Data was analyzed using Excel and PRISM (GraphPad Software) to obtain pEC50 and Erel using the 4-parameter logistic equation (DeLean et al, 1978) where Erel is the fitted maximal response of the test compound minus basal expressed as a percentage relative to that obtained with dopamine which was defined as 100%.

CYP3A4 = target: T3, CYP3A4 (Homo sapiens, UniProt P08684); test: In vitro assessment of CYP3A4 inhibition potential using cryopreserved human microsomes; type: in vitro ADME; details: 20 μM compound, human microsomes 0.25 mg/ml, Table C; for % CYP3A4 inhibition: midazolam 2.5 μM; for inhibition at 15 min, 20 μM: human, cryopreserved human microsomes (pooled donors), probe midazolam 2.5 μM (1-hydroxymidazolam formation)
T3 construct: cryopreserved human microsomes (pooled donors); from tissue
T3 sequence (P08684 whole entry): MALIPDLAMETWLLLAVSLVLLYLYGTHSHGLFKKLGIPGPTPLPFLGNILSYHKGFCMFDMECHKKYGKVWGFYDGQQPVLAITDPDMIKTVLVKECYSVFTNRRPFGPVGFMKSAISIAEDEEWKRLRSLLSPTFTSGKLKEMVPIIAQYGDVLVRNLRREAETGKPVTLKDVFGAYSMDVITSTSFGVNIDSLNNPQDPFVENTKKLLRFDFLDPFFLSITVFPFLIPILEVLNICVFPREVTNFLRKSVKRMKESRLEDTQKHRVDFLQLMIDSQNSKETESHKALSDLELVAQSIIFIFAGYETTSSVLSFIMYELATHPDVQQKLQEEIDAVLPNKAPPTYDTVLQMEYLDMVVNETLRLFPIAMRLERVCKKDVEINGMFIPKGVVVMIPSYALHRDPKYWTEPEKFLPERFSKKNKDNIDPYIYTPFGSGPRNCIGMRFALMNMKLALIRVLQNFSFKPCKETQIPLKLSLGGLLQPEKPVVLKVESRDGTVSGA
Procedure: The objective of the human microsome assay is to characterize the inhibition potential of Compound of formula (I) by measuring the CYP3A4 activities after its co-incubation with midazolam, a specific CYP3A4 substrate.
To this aim, cryopreserved human microsomes (pooled donors) are divided on a 48 well collagen coated plate so that the final concentration is 0.25 mg/ml. The UCB compound is then added in the wells at 20 μM concentration in duplicate. After 30 min incubation, midazolam is added at 2.5 μM concentration. After 15 min, an aliquot is removed and placed into an equal volume of methanol containing internal standard. The samples are centrifuged at 2500 rpm at 4° C. for 20 min. An aliquot of supernatant is diluted with deionised water and levels of 1-hydroxymidazolam is quantified using generic LC MS/MS methods.
The concentrations are compared to those obtained after midazolam incubation at the same concentration but without UCB compound pre-incubation. The results are expressed as % of inhibition.

T1 sequence (P14867 28-456): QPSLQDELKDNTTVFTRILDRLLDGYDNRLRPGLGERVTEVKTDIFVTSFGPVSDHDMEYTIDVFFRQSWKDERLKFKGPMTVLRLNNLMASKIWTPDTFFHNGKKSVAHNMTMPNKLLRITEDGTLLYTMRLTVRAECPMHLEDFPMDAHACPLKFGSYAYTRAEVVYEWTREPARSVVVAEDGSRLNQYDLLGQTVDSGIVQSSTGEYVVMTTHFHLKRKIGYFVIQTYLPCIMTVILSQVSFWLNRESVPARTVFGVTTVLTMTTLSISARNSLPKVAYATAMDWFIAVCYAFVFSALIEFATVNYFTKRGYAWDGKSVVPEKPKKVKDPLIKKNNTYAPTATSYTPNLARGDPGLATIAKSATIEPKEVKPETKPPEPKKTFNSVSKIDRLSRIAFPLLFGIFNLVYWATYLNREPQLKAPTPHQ
T1 sequence (P47870 25-512 limits assumed): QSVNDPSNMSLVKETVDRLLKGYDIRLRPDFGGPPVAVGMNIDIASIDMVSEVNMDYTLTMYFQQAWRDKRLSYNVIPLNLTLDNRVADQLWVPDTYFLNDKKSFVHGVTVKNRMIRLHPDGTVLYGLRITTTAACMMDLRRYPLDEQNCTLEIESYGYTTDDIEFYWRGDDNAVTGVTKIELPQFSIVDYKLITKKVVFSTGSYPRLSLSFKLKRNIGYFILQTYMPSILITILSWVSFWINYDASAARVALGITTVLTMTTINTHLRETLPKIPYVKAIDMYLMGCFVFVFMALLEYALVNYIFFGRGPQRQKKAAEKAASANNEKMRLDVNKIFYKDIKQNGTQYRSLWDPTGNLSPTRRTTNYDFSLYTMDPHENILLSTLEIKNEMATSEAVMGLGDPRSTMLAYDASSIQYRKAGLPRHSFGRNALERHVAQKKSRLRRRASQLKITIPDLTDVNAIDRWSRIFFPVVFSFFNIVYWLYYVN
T1 sequence (P18507 40-475): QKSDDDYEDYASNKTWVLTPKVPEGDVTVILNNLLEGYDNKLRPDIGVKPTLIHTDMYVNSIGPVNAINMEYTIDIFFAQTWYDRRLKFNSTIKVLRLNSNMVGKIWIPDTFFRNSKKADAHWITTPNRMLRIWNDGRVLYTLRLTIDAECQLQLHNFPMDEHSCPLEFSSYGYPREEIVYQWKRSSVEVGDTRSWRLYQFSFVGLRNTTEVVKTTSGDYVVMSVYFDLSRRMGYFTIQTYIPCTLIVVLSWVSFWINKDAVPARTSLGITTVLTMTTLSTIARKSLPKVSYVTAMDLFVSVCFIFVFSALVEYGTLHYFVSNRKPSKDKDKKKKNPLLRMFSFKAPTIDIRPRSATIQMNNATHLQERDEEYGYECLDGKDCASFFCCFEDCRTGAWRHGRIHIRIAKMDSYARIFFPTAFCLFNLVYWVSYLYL

Row | % GABAA inhibition [1] | EC50 (dopamine D1 receptor) | inhibition at 10 µM [1] | inhibition at 15 min, 20 μM (CYP3A4) | Compound | % CYP3A4 inhibition (CYP3A4)
1 | −8.4% | 25.1 nM |  |  | CC(O)c1ncc(Cl)c(CC(=O)N2CC[C@H]3[C@H]([C@H](O)C(F)(F)F)CCC[C@@H]3[C@@H]2C)c1Cl (single isomer, unassigned) [Example 9-B] | ++++ (A percentage of inhibition greater than about 20% and lower than or equal to about 40% is indicated by ++++.)
2 |  | 15.8 nM | 9.6% | 20 to 40% | C[C@H]1[C@H]2CCC[C@@H]([C@H](O)C(F)(F)F)[C@@H]2CCN1C(=O)Cc1c(Cl)cnc(CO)c1Cl [Example 12, 1-[(1S,4aR,5R,8aS)-1-methyl-5-[(1 S)-2,2,2-trifluoro-1-hydroxy-ethyl]-3,4,4a,5,6,7,8,8a-octahydro-1H-isoquinolin-2-yl]-2-[3,5-dichloro-2-(hydroxymethyl)-4-pyridyl]ethanone] | 
3 |  | 12.6 nM | 8.5% | 20 to 40% | C[C@H]1[C@H]2CCC[C@@H]([C@H](O)C(F)(F)F)[C@@H]2CCN1C(=O)Nc1c(Cl)cccc1Cl [Example 10, (1S,4aR,5R,8aS)—N-(2,6-dichlorophenyl)-1-methyl-5-[(1S)-2,2,2-trifluoro-1-hydroxy-ethyl]-3,4,4a,5,6,7,8,8a-octahydro-1H-isoquinoline-2-carboxamide] | 
4 |  | 25.1 nM | 13.8% | 60 to 70% | COc1ncc(Cl)c(CC(=O)N2CC[C@H]3[C@H]([C@H](O)C(F)(F)F)CCC[C@@H]3[C@@H]2C)c1Cl [Example 3, 1-[(1S,4aR,5R,8aS)-1-methyl-5-[(1S)-2,2,2-trifluoro-1-hydroxy-ethyl]-3,4,4a,5,6,7,8,8a-octahydro-1H-isoquinolin-2-yl]-2-(3,5-dichloro-2-methoxypyridin-4-yl)ethanone] | 
5 | −1.2% | 126 nM |  |  | C[C@H]1[C@H]2CCCC([C@@H](O)C(F)(F)F)[C@@H]2CCN1C(=O)Cc1c(Cl)ccc2c1c(Cl)nn2C (single isomer, unassigned) [Example 8-B] | +++ (A percentage of inhibition greater than about 40% and lower than or equal to about 60% is indicated by +++.)
6 | −14.1% | 39.8 nM |  | 20 to 40% | CC(O)c1ncc(Cl)c(CC(=O)N2CC[C@H]3[C@H]([C@H](O)C(F)(F)F)CCC[C@@H]3[C@@H]2C)c1Cl (single isomer, unassigned) [Example 9-A] | 
7 |  | 398 nM | 4.9% | 40 to 60% | COc1ccc(C#N)c(CC(=O)N2CC[C@H]3[C@H]([C@@H](O)C(F)(F)F)CCC[C@@H]3[C@@H]2C)c1Cl [Example 1-B, 2-[2-[(1S,4aR,5R,8aS)-1-methyl-5-[(1R)-2,2,2-trifluoro-1-hydroxy-ethyl]-3,4,4a,5,6,7,8,8a-octahydro-1H-isoquinolin-2-yl]-2-oxo-ethyl]-3-chloro-4-methoxybenzonitrile] | 
8 |  | 39.8 nM | 0% | 20 to 40% | COc1ccc(Cl)c(CC(=O)N2CC[C@H]3[C@H]([C@H](O)C(F)(F)F)CCC[C@@H]3[C@@H]2C)c1C#N [Example 2, 2-[2-[(1S,4aR,5R,8aS)-1-methyl-5-[(1S)-2,2,2-trifluoro-1-hydroxyethyl]-3,4,4a,5,6,7,8,8a-octahydro-1H-isoquinolin-2-yl]-2-oxoethyl]-3-chloro-6-methoxybenzonitrile] | 
9 |  | 50.1 nM | 8.6% | 20 to 40% | COc1ccc(C#N)c(CC(=O)N2CC[C@@H]3[C@H](CCC[C@H]3C(O)C(F)F)[C@@H]2C)c1Cl (single isomer, unassigned) [Example 6-A] | 
10 | 2.0% | 79.4 nM |  | 20 to 40% | C[C@H]1[C@H]2CCCC([C@@H](O)C(F)(F)F)[C@@H]2CCN1C(=O)Cc1c(Cl)ccc2c1c(Cl)nn2C (single isomer, unassigned) [Example 8-A] | 
11 |  | 31.6 nM | 11.2% | 60 to 70% | COc1ccc(C#N)c(CC(=O)N2CC[C@H]3[C@H]([C@H](O)C(F)(F)F)CCC[C@@H]3[C@@H]2C)c1Cl [Example 1-A, 2-[2-[(1S,4aR,5R,8aS)-1-methyl-5-[(1S)-2,2,2-trifluoro-1-hydroxy-ethyl]-3,4,4a,5,6,7,8,8a-octahydro-1H-isoquinolin-2-yl]-2-oxo-ethyl]-3-chloro-4-methoxybenzonitrile] | 
12 | 10.9% | 200 nM |  |  | COc1ccc(C#N)c(CC(=O)N2CC[C@@H]3[C@H](CCC[C@H]3C(O)C(F)F)[C@@H]2C)c1Cl (single isomer, unassigned) [Example 6-B] | ++++ (A percentage of inhibition greater than about 20% and lower than or equal to about 40% is indicated by ++++.)
13 |  | 50.1 nM | -8% | 20 to 40% | C[C@H]1[C@H]2CCC[C@@H]([C@H](O)C(F)(F)F)[C@@H]2CCN1C(=O)Cc1c(Cl)cnc(C(C)(C)O)c1Cl [Example 13, 1-[(1S,4aR,5R,8aS)-1-methyl-5-[(1S)-2,2,2-trifluoro-1-hydroxy-ethyl]-3,4,4a,5,6,7,8,8a-octahydro-1H-isoquinolin-2-yl]-2-[3,5-dichloro-2-(1-hydroxy-1-methyl-ethyl)-4-pyridyl]ethanone] | 
14 |  | 31.6 nM | -8% | 40 to 60% | C[C@H]1[C@H]2CCC[C@@H]([C@H](O)C(F)(F)F)[C@@H]2CCN1C(=O)Cc1c(Cl)cc(F)c2[nH]nc(Cl)c12 [Example 14, 1-[(1 S,4aR,5R,8aS)-1-methyl-5-[(1 S)-2,2,2-trifluoro-1-hydroxy-ethyl]-3,4,4a,5,6,7,8,8a-octahydro-1H-isoquinolin-2-yl]-2-(3,5-dichloro-7-fluoro-1H-indazol-4-yl)ethanone] | 
